Results as given in patent publication US7307087B2, “Treatment of affective disorders by the combined action of a nicotinic receptor agonist and a monoaminergic substance” (Neurosearch A/S, priority 2000, dated 2007).

Legend:
[1] = system: NMRI mice; details: systemic administration; mice in a small water pool; background statement; cited from earlier work
[2] = system: NMRI mice; assay: Mouse Forced Swim Test (mFST); assay type: in vivo; details: compound alone, 0.3, 1, 3, 10 mg/kg s.c., 30 minutes pre-treatment
Protocol: The Forced Swim Test therefore is considered predictive of a potential antidepressant pharmacological effect.
Female NMRI mice (of 20-25 g) are habituated to the laboratory (a 12 hour light/dark cycle) for at least 16 hours before the experiment.
30 minutes after s.c. injection of either vehicle or drug, the mouse is placed in a glass beaker (d=16 cm; 5000 ml) with water (24° C.) up till 10 cm from the top edge. For the subsequent 6 minutes the duration of immobility defined as swim speed less than 2.5 cm/minute, and forced swim distance defined as distance swum with a speed above 5 cm/minute, is recorded. There are 8 mice in each group.
The activity of the mouse is tracked by the View Point system for the measurement of distance, immobility, and speed.
Time of immobility ±SEM (seconds) and forced swim distance ±SEM (cm) in 15 seconds time intervals are presented and plotted in SigmaPlot. Mean total immobility time and total swim distance in the time interval 60-360 seconds are calculated and presented for each group. The dose showing significant difference from the vehicle treated group is reported as the Minimal Effective Dose (MED s.c. mg/kg).

| Compound | melting point | further results |
| --- | --- | --- |
| O=C(O)/C=C/C(=O)O.c1ccc2c(c1)ncn2-c1ccc(N2CCNCC2)nn1 | 217 °C |  |
| CNCCCN1c2ccccc2CCc2ccccc21 [Desipramine] |  | forced swim distance [1]: induces an increase in the forced swim distance |
| Cl.Cl.Clc1ccc(N2CCNCC2)cn1 [Compound 1C3, 1-(6-Chloro-3-pyridyl)-piperazine Dihydrochloric Acid Salt] |  | forced swimming [2]: did not affect forced swimming |

The next lines start with results.

| melting point | Compound | further results |
| --- | --- | --- |
| 187 to 190 °C | Ic1ccc(N2CCNCC2)nn1.O=C(O)/C=C/C(=O)O |  |
| 195 to 196 °C | Clc1cncc(N2CCNCC2)c1.O=C(O)/C=C/C(=O)O |  |
| 143.9 °C | CN1C2CCC1CN(c1ccccc1)CC2.O=C(O)/C=C/C(=O)O (racemic) |  |
